{"source": "paper PMC5078989", "about": "“Targeted inhibition of the COP9 signalosome for treatment of cancer” (Nature Communications, 2016)", "key": {"SU-DHL-1 xenografts": {"test_system": "SU-DHL-1 xenografts", "assay": "SU-DHL-1 xenograft experiment in SCID-bg mice", "assay_type": "in vivo", "conditions": "14 days; for T/C value (tumour volume of treated versus control): last day of treatment", "experimental": "For the in vivo study, subcutaneous SU-DHL-1 xenografts were grown in SCID-bg mice and CSN5i-3 was administered orally at doses of 50 mg kg^−1 BID and 100 mg kg^−1 QD over a period of 14 days. […] Tumours were excised at the end of the study and the effect of compound treatment assessed on the pharmacodynamics markers, neddylated Cul1 and Skp2. […] All animal experiments were approved by the Kantonales Veterinäramt Basel-Stadt and were conducted in accordance with the Eidgenössisches Tierschutzgesetz and the Eidgenössische Tierschutzverordnung. SU-DHL-1 cells (1 × 10^7; DSMZ) were implanted subcutaneously into SCID-bg female 7–9-week-old mice (Taconic) and developing tumours were propagated once before subcutaneous transplantation for efficacy studies. Treatment was initiated when tumours reached 150–200 mm^3 volume. […] Randomization was conducted by using an internal computer software (Indigo). CSN5i-3 was formulated in 100 mM citrate buffer pH 3, PEG300, Kolliphor HS15, 1 N HCl (56:30:10:4%w/w). Tumour response is reported as percentage change in tumour volume at the last day of treatment relative to start of treatment. […] At day 10 of treatment blood, samples were taken and concentrations of CSN5i-3 were determined at indicated time points post dose using ultra-high-pressure liquid chromatography/tandem MS. At the end of treatment, tumours were excised and snap frozen in liquid nitrogen. Frozen tumours were pulverized using CryoPrep (Covaris Inc.) and protein lysates were prepared from tumour powder for immunoblot analysis."}, "HCT116 cells": {"test_system": "HCT116 cells", "assay": "Immunoblotting of cullins, CRL components and substrates in HCT116 cells", "assay_type": "cell-based, human", "experimental": "Figure 2 CSN5 inhibition results in the inactivation of a subset of CRLs and the stabilization of their substrates. Effect on CRL components and substrates after treatment of HCT116 cells with either 1 μM MLN4924 or 1 μM CSN5i-3. (a) Immunoblottings for Cul1 and its CRL components Rbx and Skp1; (b) for cullins Cul2, Cul3 and Cul4A; (c) for F-box protein Skp2 and the SCF^Skp2 substrates p21 and p27; (d) for F-box proteins Fbxo22 and Fbxo30; (e) for F-box protein βTrCP and the SCF^βTrCP substrates Wee1 and pIκBα; (f) for the adaptor KEAP1 and the Cul3^KEAP1 substrate Nrf2; (g) for F-box proteins Fbxw7 and Fbxo3.\nCells were maintained in a humidified incubator at 37 °C and 5% CO2. HCT116 cells (ATCC #CCL-247) were grown in McCoy's 5A medium (GIBCO #16600–082) supplemented with 10% fetal bovine serum (FBS), TE-1 (RIKEN BioResource Center, #RCB1894), NCI-H2030 (ATCC #CRL-591), SU-DHL-1 (DMSZ #ACC 356), NOMO-1 (HSRRB #IFO50474) and NCIH196 cells (ATCC, #CRL-5823) in RPMI-1640 medium (GIBCO#61870–010) supplemented with 10% FBS, 10 mM HEPES, 1 mM sodium pyruvate and THP-1 cells (ATCC #TIB-202) with additional 0.05 mM 2-mercaptoethanol. DMS273 cells (ECACC #950628) were cultured in Waymouth's MB 752/1 medium (GIBCO#11220–035) supplemented with 10% FBS. All cells were negatively tested for mycoplasma contamination either by the vendor or in house. For treatment with compounds, sub-confluent cells were either treated with inhibitors at the indicated concentrations or mock treated with an equivalent amount of DMSO (final content 0.1%). If not stated otherwise, cells were harvested after incubation for 16 h and subjected to SDS–PAGE and western blotting. The RNA interference experiment was performed with CSN5 stealth siRNA (#HSS116986) and stealth negative control siRNA (#12935–400) (Invitrogen), which were transfected at 10 nM into HCT116 cells using HiperFect (Qiagen) according to the manufacturer's protocols. Seventy-two hours after transfection, cells were harvested and subjected to SDS–PAGE and western blotting (see Supplementary Fig. 7 for all western blottings performed).\nFor further analysis, cell lysates were prepared by direct lysis with 2 × Sample buffer (65.8 mM Tris-HCl, pH 6.8, 2.1% SDS, 26.3% glycerol, 0.01% bromophenol blue and 20 mM DTT). Protein lysates from tumour powder were prepared in RIPA buffer (50 mM Tris-HCl pH 8.0, 150 mM NaCl, 1% Triton X-100, 2 mM EDTA, 0.5% sodium deoxycholate and 0.1% SDS) supplemented with 10 mM N-ethylmaleimide, protease inhibitor and phosphatase inhibitor cocktails (Roche Diagnostics). Cells from longer compound incubations were also lysed in RIPA buffer, which allows the protein concentration to be determined by BCA Protein Assay Kit (Pierce). Proteins were separated by SDS–PAGE using 4–20% Tris-Glycine Gels (Invitrogen) and subsequently transferred to polyvinylidene difluoride membranes using a Trans-Blot Turbo System (BioRad). […] Horseradish peroxidase-conjugated secondary antibodies (1:3,000) were purchased from Promega AG and bound antibody was detected by enhanced chemiluminescence (Pierce)."}, "[1]": {"conditions": "50 mg kg^−1 BID and 100 mg kg^−1 QD oral"}}}
{"compound": "CC(C)n1nc(C(F)F)cc1C(=O)Nc1ccc([C@H]2[C@@H](O)CCCc3cncn32)c(-c2ccccc2)c1", "note": "[CSN5i-3, 3-(Difluoromethyl)-N-(6-((5S,6S)-6-hydroxy-6,7,8,9-tetrahydro-5H-imidazo[1,5-a]azepin-5-yl)-[1,1′-biphenyl]-3-yl)-1-isopropyl-1H-pyrazole-5-carboxamide]", "values": [{"measurement": "tolerability based on body weight", "setting": "SU-DHL-1 xenografts; [1]", "result": "well tolerated"}, {"measurement": "tumour growth outcome", "setting": "SU-DHL-1 xenografts; [1]", "result": "Tumour stasis"}, {"measurement": "T/C value (tumour volume of treated versus control)", "setting": "SU-DHL-1 xenografts; 50 mg kg^−1 BID oral", "result": 22, "unit": "%"}, {"measurement": "T/C value (tumour volume of treated versus control)", "setting": "SU-DHL-1 xenografts; 100 mg kg^−1 QD oral", "result": 25, "unit": "%"}, {"measurement": "degradation of Wee1, pIκB and Nrf2", "setting": "HCT116 cells; HCT116, 1 μM", "result": "did not affect their degradation"}, {"measurement": "levels of SRMs Skp2, Fbxo22 and Fbxo30", "setting": "HCT116 cells; HCT116, 1 μM", "result": "degradation"}, {"measurement": "levels of βTrCP, KEAP1, Fbxo3 and Fbxw7", "setting": "HCT116 cells; HCT116, 1 μM", "result": "remained stable"}, {"measurement": "cullin-1 (Cul1) deneddylation in HCT116 cells", "setting": "HCT116 cells; qualitative western blot analysis", "result": "accumulation of neddylated Cul1"}]}
